Source: patent publication US12122756B2, “Biflavone compound against I-type herpes simplex virus, and preparation method therefor and use thereof” (priority 2022, dated 2024)
Marks after values point to notes of the source that are not given here.

Experiments:
HSV-I [1] = test: Plaque-reduction method: plaque formation in Vero cells induced by HSV-I; type: cell-based, Herpes simplex virus type I
Experimental: (2) Measurement of the inhibitory effect of drugs on the formation of plaque in Vero cells induced by HSV-I using plaque-reduction method: Vero cells were seeded into a 24-well plate and grew into a monolayer the next day. Then, the 100 PFU/0.2 ml virus solution was added to infect the cells, and a cell control group was included. After incubation with the virus, the agarose cover solution for maintenance of cells, containing different concentrations of the test drug, was replaced, followed by cultivation for additional 72 hours. The cell culture was fixed with 4% paraformaldehyde, stained with 1% crystal violet solution, washed, and dried. The plaque was counted to calculate plaque-forming inhibition ratio of the drug. [formula] 5. Study on the Action Mode of the Test Drug

[2] = Solubility (highest solubility used as starting concentration; water solubility)
HSV-I [3] = test: Action mode: direct inactivation effect on HSV-I (CPE, CCK-8); type: cell-based, Herpes simplex virus type I
Experimental: (3) The direct inactivation effect of drugs on HSV-I: Vero cells were seeded in a 96-well plate and grew into a monolayer. Different concentrations of samples were respectively mixed with the virus solution, followed by placing at 37° C. for 1 hour. Then, the solution was added the cells, and incubated for 1 hour. Then, the cell maintenance solution was replaced, and the cells were further cultured. After 72 hours, the direct inactivation effects of drugs on HSV-I was determined using the CCK-8 method. Moreover, a virus control group was set up.

HSV-I [4] = test: Action mode: inhibitory effect on HSV-I replication (CPE, CCK-8); type: cell-based, Herpes simplex virus type I
Experimental: (2) The inhibitory effect of drugs on HSV-I replication: Vero cells were seeded in a 96-well plate and grew into a monolayer, before adding HSV-I virus solution at 100 μl/well, followed by incubation for 1 hour. Then, the cell maintenance solution containing different concentrations of sample was replaced, and the cells were further cultured. After 72 hours, the effect on the replication of virus was determined using the CCK-8 method.

HSV-I [5] = test: Cytopathic effect (CPE) assay: inhibition of pathological changes of Vero cells induced by HSV-I (CCK-8); type: cell-based, Herpes simplex virus type I
Experimental: (1) Determination of the inhibitory activities of the test drugs on pathological changes of Vero cells induced by HSV-I using the cytopathic effect (CPE) assay: Vero cells were seeded in a 96-well plate and grew into a monolayer the next day. 100TCID50 HSV-I was added to infect cells, and then the cell maintenance solution containing different concentrations of the test drug was replaced, and a cell control group was included. The cells were cultured in an incubator for 72 hours. Then, the inhibitory effect of the drug on virus-induced cytopathic changes was measured using the CCK-8 assay, and thus the 50% inhibiting concentration (IC50) of the drug was calculated.

HSV-I viral keratitis = HSV-I viral keratitis model in mice, eye drops; type: in vivo
From the text: 8-week-old C57 mice (25 mice, weighing 22 g-25 g) were used to establish HSV-I viral keratitis models in their right eyes. During the modeling process, ster[…] needles were used to make #-shaped/*-shaped/parallel scratches on the cornea of all animals' right eyes. The depth of the scratches must be in the superficial layer, and could not penetrate the stroma. The depth of the scratches for each eye was moderately uniform, and the scratches were evenly distributed, and then a fiber syringe was used to drop 4 μl of HSV-I virus solution mixed well (titer: 2.0×10^6 PFU/ml), to finish modeling. After 1 day of modeling, the right eye of the animal was scored for HSV-I viral keratitis, and 20 mice with successful and uniform modeling were selected for inclusion in the experiment, which were randomly divided into two groups: a modeling group (Ctrl) and a di-XYW compound group, with 10 mice in one group. The surface of the right eye of the animal was treated with a corresponding solvent (Ctrl group, with physiological saline as the solvent) or a di-XYW compound at a concentration of 500 μg/ml (using physiological saline as the solvent), by administering every other day. On the day of administration, each eye should be administrated 5 times, 10 μl for each time, for 2 weeks. The pathological change of keratitis was scored before eye drops (Day 0) and on days 1, 3, 7, and 14 after eye drops (that was summarized as clinical scores, with scoring criteria shown in Table 7), followed by analysis and comparison. [table]

Vero cells = test: Cytotoxic assay of tested drugs against Vero cells (CCK-8); type: cell-based, African green monkey
Experimental: 3. Cytotoxic assay of tested drugs against Vero cells: Vero cells were seed in a 96 well plate at 3×10^4 cells/well. The next day, after growing into a monolayer, the test drug was diluted to obtain 8-9 concentrations and added to each well. Meanwhile, a normal control group was established, with 4 replicate wells for each group. After 72 hours, the toxicity of the test drug to Vero cells was measured using CCK-8 assay, and the highest non-toxic concentration and half toxic concentration (TC50) of the drug on the cells were calculated.

COc1c(O)c(Cc2c(O)c(OC)c(O)c3c(=O)c(-c4ccc(O)c(S(=O)(=O)[O-])c4)coc23)c2occ(-c3ccc(O)c(S(=O)(=O)[O-])c3)c(=O)c2c1O.[Na+].[Na+] [Compound 2, 8,8″-methylene-di-(sodiumtectorigenin-5′-sulphonate)]
inhibitory effect on plaque formation induced by HSV-I (in words) (HSV-I [1]): significant inhibitory effect
solubility [2]: 1600 µg/mL
Direct inactivation: OD value (HSV-I [3]; 5.97 μg/ml, n = 6): 0.33 ± 0.04
Direct inactivation: OD value (HSV-I [3]; 11.94 μg/ml, n = 6): 0.39 ± 0.05
Direct inactivation: OD value (HSV-I [3]; 23.88 μg/ml, n = 6): 0.48 ± 0.06
Direct inactivation: OD value (HSV-I [3]; 47.45 μg/ml, n = 6): 0.55 ± 0.08
Direct inactivation: OD value (HSV-I [3]; 95.50 μg/ml, n = 6): 0.65 ± 0.08
Direct inactivation: OD value (HSV-I [3]; 191.00 μg/ml, n = 6): 0.90 ± 0.09
Direct inactivation: OD value (HSV-I [3]; 382.00 μg/ml, n = 6): 1.08 ± 0.06
direct inactivation of the virus (in words) (HSV-I [3]; CPE method): significant effect
inhibition at 5.97 µg/mL (HSV-I [3]; Human alphaherpesvirus 1, 5.97 μg/ml, n = 6, read-out: Direct inactivation: Inhibition rate (%)): 3.91%
inhibition at 11.94 µg/mL (HSV-I [3]; Human alphaherpesvirus 1, 11.94 μg/ml, n = 6, read-out: Direct inactivation: Inhibition rate (%)): 10.8%
inhibition at 23.88 µg/mL (HSV-I [3]; Human alphaherpesvirus 1, 23.88 μg/ml, n = 6, read-out: Direct inactivation: Inhibition rate (%)): 22.4%
inhibition at 47.45 µg/mL (HSV-I [3]; Human alphaherpesvirus 1, 47.45 μg/ml, n = 6, read-out: Direct inactivation: Inhibition rate (%)): 31.2%
inhibition at 95.5 µg/mL (HSV-I [3]; Human alphaherpesvirus 1, 95.50 μg/ml, n = 6, read-out: Direct inactivation: Inhibition rate (%)): 44.2%
inhibition at 191 µg/mL (HSV-I [3]; Human alphaherpesvirus 1, 191.00 μg/ml, n = 6, read-out: Direct inactivation: Inhibition rate (%)): 76%
inhibition at 382 µg/mL (HSV-I [3]; Human alphaherpesvirus 1, 382.00 μg/ml, n = 6, read-out: Direct inactivation: Inhibition rate (%)): 98.7%
Effect on viral replication: OD value (HSV-I [4]; 5.97 μg/ml, n = 6): 0.33 ± 0.05
Effect on viral replication: OD value (HSV-I [4]; 11.94 μg/ml, n = 6): 0.36 ± 0.07
Effect on viral replication: OD value (HSV-I [4]; 23.88 μg/ml, n = 6): 0.62 ± 0.05
Effect on viral replication: OD value (HSV-I [4]; 47.45 μg/ml, n = 6): 0.80 ± 0.05
Effect on viral replication: OD value (HSV-I [4]; 95.50 μg/ml, n = 6): 0.97 ± 0.09
Effect on viral replication: OD value (HSV-I [4]; 191.00 μg/ml, n = 6): 0.98 ± 0.12
Effect on viral replication: OD value (HSV-I [4]; 382.00 μg/ml, n = 6): 0.99 ± 0.02
effect on viral replication (in words) (HSV-I [4]; CPE method): significant effect
inhibition at 5.97 µg/mL (HSV-I [4]; Human alphaherpesvirus 1, 5.97 μg/ml, n = 6, read-out: Effect on viral replication: Inhibition rate (%)): 13.1%
inhibition at 11.94 µg/mL (HSV-I [4]; Human alphaherpesvirus 1, 11.94 μg/ml, n = 6, read-out: Effect on viral replication: Inhibition rate (%)): 17.6%
inhibition at 23.88 µg/mL (HSV-I [4]; Human alphaherpesvirus 1, 23.88 μg/ml, n = 6, read-out: Effect on viral replication: Inhibition rate (%)): 50.5%
inhibition at 47.45 µg/mL (HSV-I [4]; Human alphaherpesvirus 1, 47.45 μg/ml, n = 6, read-out: Effect on viral replication: Inhibition rate (%)): 73.8%
inhibition at 95.5 µg/mL (HSV-I [4]; Human alphaherpesvirus 1, 95.50 μg/ml, n = 6, read-out: Effect on viral replication: Inhibition rate (%)): 96.2%
inhibition at 191 µg/mL (HSV-I [4]; Human alphaherpesvirus 1, 191.00 μg/ml, n = 6, read-out: Effect on viral replication: Inhibition rate (%)): 98%
inhibition at 382 µg/mL (HSV-I [4]; Human alphaherpesvirus 1, 382.00 μg/ml, n = 6, read-out: Effect on viral replication: Inhibition rate (%)): 98.8%
Average optical density (OD) (HSV-I [5]; 5.97 μg/ml, n = 6): 0.33 ± 0.04
Average optical density (OD) (HSV-I [5]; 11.94 μg/ml, n = 6): 0.35 ± 0.05
Average optical density (OD) (HSV-I [5]; 23.88 μg/ml, n = 6): 0.44 ± 0.07
Average optical density (OD) (HSV-I [5]; 47.75 μg/ml, n = 6): 0.65 ± 0.06
Average optical density (OD) (HSV-I [5]; 95.50 μg/ml, n = 6): 0.95 ± 0.04
Average optical density (OD) (HSV-I [5]; 191.00 μg/ml, n = 6): 1.06 ± 0.05
Average optical density (OD) (HSV-I [5]; 382.00 μg/ml, n = 6): 1.10 ± 0.03
inhibitory effect on HSV-I induced cytopathic changes (in words) (HSV-I [5]; CPE method): significant inhibitory effect
inhibition at 5.97 µg/mL (HSV-I [5]; Human alphaherpesvirus 1, Vero, 5.97 μg/ml, n = 6, read-out: Inhibition rate (%)): -0.36%
inhibition at 11.94 µg/mL (HSV-I [5]; Human alphaherpesvirus 1, Vero, 11.94 μg/ml, n = 6, read-out: Inhibition rate (%)): 2.87%
inhibition at 23.88 µg/mL (HSV-I [5]; Human alphaherpesvirus 1, Vero, 23.88 μg/ml, n = 6, read-out: Inhibition rate (%)): 14.5%
inhibition at 47.75 µg/mL (HSV-I [5]; Human alphaherpesvirus 1, Vero, 47.75 μg/ml, n = 6, read-out: Inhibition rate (%)): 40.7%
inhibition at 95.5 µg/mL (HSV-I [5]; Human alphaherpesvirus 1, Vero, 95.50 μg/ml, n = 6, read-out: Inhibition rate (%)): 79.9%
inhibition at 191 µg/mL (HSV-I [5]; Human alphaherpesvirus 1, Vero, 191.00 μg/ml, n = 6, read-out: Inhibition rate (%)): 94%
inhibition at 382 µg/mL (HSV-I [5]; Human alphaherpesvirus 1, Vero, 382.00 μg/ml, n = 6, read-out: Inhibition rate (%)): 99.2%
IC50 (HSV-I [5]; Human alphaherpesvirus 1, against HSV-I in Vero cells, Probit regression): 54.5 µg/mL
SI (selection index = TC50/IC50) (HSV-I [5]; TC50 on Vero cells / IC50 against HSV-I): 32.117
keratitis pathological changes and clinical score changes compared to model control group (Ctrl) (HSV-I viral keratitis; C57 mice, after 1 and 2 weeks of eye drops at 500 μg/ml, *P<0.05): statistically significant differences
therapeutic effect on HSV-I viral keratitis (in words) (HSV-I viral keratitis; C57 mice, eye drops 500 μg/ml, every other day, 5 x 10 μl per day, 2 weeks): good therapeutic effect
inhibition of pathological changes of HSV-I viral keratitis (in words) (HSV-I viral keratitis; mice, eye drops): effectively inhibit
growth inhibition rate (%) on Vero cells (Vero cells; 1st (highest) concentration (971, 1600, 2620, 390 μg·ml^−1 for Compounds 1-4), 72 h): 41.92** %
growth inhibition rate (%) on Vero cells (Vero cells; 2nd concentration, 50% serial dilution from column-head concentration, 72 h): 29.02** %
growth inhibition rate (%) on Vero cells (Vero cells; 3rd concentration, 50% serial dilution from column-head concentration, 72 h): 11.69** %
growth inhibition rate (%) on Vero cells (Vero cells; 4th concentration, 50% serial dilution from column-head concentration, 72 h): −4.55%
growth inhibition rate (%) on Vero cells (Vero cells; 5th concentration, 50% serial dilution from column-head concentration, 72 h): 5.46%
growth inhibition rate (%) on Vero cells (Vero cells; 6th concentration, 50% serial dilution from column-head concentration, 72 h): −4.74%
growth inhibition rate (%) on Vero cells (Vero cells; 7th concentration, 50% serial dilution from column-head concentration, 72 h): −12.11%
growth inhibition rate (%) on Vero cells (Vero cells; 8th concentration, 50% serial dilution from column-head concentration, 72 h): −8.20%
growth inhibition rate (%) on Vero cells (Vero cells; 9th concentration, 50% serial dilution from column-head concentration, 72 h): −13.88%
TC50 on Vero cells (Vero cells; 72 h, CCK-8, Probit regression): 1749.982 µg/mL
toxicity (in words) (Vero cells; Vero cells): lower toxicity
TC50 (Vero cells; Vero cells (Table 5)): 1749.982 µg/mL
highest non-toxic concentration (Vero cells; Vero cells, 72 h, CCK-8): 382.804 µg/mL
